Laboratory results reported in ChEMBL document CHEMBL1152254, “Synthesis, biological evaluation, and molecular modeling investigation of chiral 2-(4-chloro-phenoxy)-3-phenyl-propanoic acid derivatives with PPARalpha and PPARgamma agonist activity” (Bioorg Med Chem, 2008).
Activity calls are given as the source filed them. The calls are words filed in the database; no cut-off is given here.

Tests used:
Format in all cases: cell-based
[1] = molecular target: T1, Peroxisome proliferator-activated receptor gamma (Homo sapiens) (UniProt P37231); assay: (§1) Agonist activity at human PPARgamma ligand binding domain expressed in human HepG2 cells co-transfected with Gal4 by luciferase reporter gene assay
T1 sequence (whole entry): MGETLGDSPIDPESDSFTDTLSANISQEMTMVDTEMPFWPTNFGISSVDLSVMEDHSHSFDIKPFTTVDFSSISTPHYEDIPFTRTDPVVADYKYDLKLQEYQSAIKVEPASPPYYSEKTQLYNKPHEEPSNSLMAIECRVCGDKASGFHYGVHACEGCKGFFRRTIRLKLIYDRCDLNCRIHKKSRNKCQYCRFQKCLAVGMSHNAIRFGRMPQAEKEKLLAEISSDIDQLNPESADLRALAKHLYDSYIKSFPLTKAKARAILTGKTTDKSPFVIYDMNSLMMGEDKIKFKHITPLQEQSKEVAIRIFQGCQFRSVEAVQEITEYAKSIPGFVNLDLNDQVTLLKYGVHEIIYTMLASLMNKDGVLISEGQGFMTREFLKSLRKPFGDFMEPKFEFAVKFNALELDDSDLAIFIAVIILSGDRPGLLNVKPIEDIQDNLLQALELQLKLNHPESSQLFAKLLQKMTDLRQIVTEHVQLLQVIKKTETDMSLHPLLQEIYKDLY

[2] = molecular target: T2, Peroxisome proliferator-activated receptor alpha (Homo sapiens) (UniProt Q07869); assay: (§2) Agonist activity at human PPARalpha ligand binding domain expressed in human HepG2 cells co-transfected with Gal4 by luciferase reporter gene assay
T2 sequence (whole entry): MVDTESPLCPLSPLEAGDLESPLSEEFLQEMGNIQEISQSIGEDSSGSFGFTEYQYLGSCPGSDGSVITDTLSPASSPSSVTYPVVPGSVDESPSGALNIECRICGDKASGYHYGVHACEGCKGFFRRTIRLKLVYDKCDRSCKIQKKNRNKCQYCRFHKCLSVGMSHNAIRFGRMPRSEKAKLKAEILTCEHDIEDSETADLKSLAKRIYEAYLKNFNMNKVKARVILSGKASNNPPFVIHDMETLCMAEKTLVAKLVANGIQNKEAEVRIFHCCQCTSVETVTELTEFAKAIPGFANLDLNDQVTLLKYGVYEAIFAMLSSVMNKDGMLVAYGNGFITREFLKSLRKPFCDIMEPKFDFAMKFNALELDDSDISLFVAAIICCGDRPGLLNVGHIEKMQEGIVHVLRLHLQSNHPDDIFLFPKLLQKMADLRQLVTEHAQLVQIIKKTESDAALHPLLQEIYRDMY

[3] = molecular target: T2, Peroxisome proliferator-activated receptor alpha (Homo sapiens); assay: Agonist activity at human PPARalpha ligand binding domain expressed in human HepG2 cells co-transfected with Gal4 by luciferase reporter gene assay relative to Wy-14,643
[4] = molecular target: T3, Peroxisome proliferator-activated receptor gamma (Homo sapiens, UniProt P37231); assay: as §1
T3 sequence (P37231 whole entry): T1 sequence (whole entry)

[5] = molecular target: T4, Peroxisome proliferator-activated receptor alpha (Homo sapiens, UniProt Q07869); assay: as §2
T4 sequence (Q07869 whole entry): T2 sequence (whole entry)

SMILES | Activity [1] | Activity [2] | Activity [3] | EC50 [4] [nM] | EC50 [5] [nM] | Efficacy [3] [%]
O=C(O)C(Cc1ccccc1)Oc1ccc(Cl)cc1-c1ccccc1 (racemic) | inactive | inactive | inactive | – | – | –
Cc1cccc(Nc2cc(Cl)nc(SCC(=O)O)n2)c1C | – | inactive | inactive | – | – | –
O=C(O)C(Cc1ccccc1)Oc1ccc(Cl)c(Cl)c1 (racemic) | – | – | – | 2550 | 4490 | 27
Cc1cc(Cl)ccc1OC(Cc1ccccc1)C(=O)O (racemic) | – | – | – | – | – | 34
O=C(O)[C@H](Cc1ccc(C(F)(F)F)cc1)Oc1ccc(Cl)cc1 | – | – | – | 3650 | 420 | 69
O=C(O)C(Cc1cccc(Oc2ccccc2)c1)Oc1ccc(Cl)cc1 (racemic) | – | – | – | 3060 | 240 | 57
CCCc1ccccc1CC(Oc1ccc(Cl)cc1)C(=O)O (stereo not drawn) | – | – | – | 3680 | 1430 | 43
O=C(O)C(Cc1ccccc1Br)Oc1ccc(Cl)cc1 (racemic) | – | – | – | 2480 | 2250 | 57
O=C(O)C(Cc1ccccc1Cl)Oc1ccc(Cl)cc1 (racemic) | – | – | – | 2230 | 2180 | 44
Cc1ccccc1CC(Oc1ccc(Cl)cc1)C(=O)O (racemic) | – | – | – | 8540 | 9250 | 50
O=C(O)C(Cc1ccccc1C(F)(F)F)Oc1ccc(Cl)cc1 (racemic) | – | – | – | 4030 | 2490 | 43
O=C(O)[C@H](Cc1ccccc1)Oc1ccc(Cl)cc1 | – | – | – | 7940 | 14500 | 48
CCCc1ccc(CC(Oc2ccc(Cl)cc2)C(=O)O)cc1 (stereo not drawn) | – | – | – | 1390 | 350 | 39
CN(CCOc1ccc(CC2SC(=O)NC2=O)cc1)c1ccccn1 (stereo not drawn) | inactive | – | – | – | – | 100
O=C(O)[C@@H](Cc1ccc(Oc2ccccc2)cc1)Oc1ccc(Cl)cc1 | – | – | – | 11300 | 700 | 15
O=C(O)[C@H](Cc1ccc(Oc2ccccc2)cc1)Oc1ccc(Cl)cc1 | – | – | – | 870 | 27 | 68
O=C(O)C(Cc1ccc(Br)cc1)Oc1ccc(Cl)cc1 (racemic) | – | – | – | 2070 | 1100 | 46

SMILES | Activity [1] | Activity [2] | Activity [3] | EC50 [4] [nM] | EC50 [5] [nM] | Efficacy [3] [%]
O=C(O)C(Cc1ccccc1)Oc1ccc(Cl)cc1Br (racemic) | – | – | – | – | 1650 | 41
CCCCCCc1cc(Cl)ccc1OC(Cc1ccccc1)C(=O)O (racemic) | inactive | inactive | inactive | – | – | –
O=C(O)C(Cc1ccccc1)Oc1c(Cl)cc(Cl)cc1Cl (racemic) | inactive | inactive | inactive | – | – | –
O=C(O)C(Cc1ccccc1Oc1ccccc1)Oc1ccc(Cl)cc1 (racemic) | inactive | – | – | – | 1140 | 40
O=C(O)C(Cc1ccc(Oc2ccccc2)cc1)Oc1ccc(Cl)cc1 (racemic) | – | – | – | 1060 | 64 | 58
O=C(O)C(Cc1ccc(Cl)cc1)Oc1ccc(Cl)cc1 (racemic) | – | – | – | 3160 | 2230 | 49
O=C(O)C(Cc1c(Cl)cccc1Cl)Oc1ccc(Cl)cc1 (racemic) | inactive | inactive | inactive | – | – | –
Cc1cc(Cl)cc(C)c1OC(Cc1ccccc1)C(=O)O (racemic) | inactive | inactive | inactive | – | – | –
CCCc1cc(Cl)ccc1OC(Cc1ccccc1)C(=O)O (stereo not drawn) | – | – | – | – | – | 18
CCCCCCc1ccc(CC(Oc2ccc(Cl)cc2)C(=O)O)cc1 (stereo not drawn) | – | – | – | – | 450 | 56
Cc1cccc(C)c1CC(Oc1ccc(Cl)cc1)C(=O)O (racemic) | inactive | inactive | inactive | – | – | –
O=C(O)[C@H](Cc1ccc(-c2ccccc2)cc1)Oc1ccc(Cl)cc1 | – | – | – | 1120 | 49 | 70
O=C(O)[C@H](Cc1ccc(-c2cccs2)cc1)Oc1ccc(Cl)cc1 | – | – | – | 590 | 65 | 71
CCCCCCc1ccccc1CC(Oc1ccc(Cl)cc1)C(=O)O (stereo not drawn) | inactive | inactive | inactive | – | – | –
O=C(O)C(Cc1ccccc1)Oc1ccc(Cl)cc1Cl (racemic) | – | – | – | – | 2120 | 50
Cc1ccc(CC(Oc2ccc(Cl)cc2)C(=O)O)cc1 (racemic) | – | – | – | 4360 | 2810 | 53
O=C(O)C(Cc1ccccc1-c1ccccc1)Oc1ccc(Cl)cc1 (stereo not drawn) | inactive | inactive | inactive | – | – | –
